According to patent publication US6107459A, “Technetium-99m labeled peptides for diagnostic imaging” (Diatide, Inc., priority 1995, dated 2000):
Where two headings read alike, the source gives them in different places. Where a SMILES comes first, the peptide text is derived from it. Where no end group is shown, it is not given here. The star is where a group is joined. X1 = CC(C)(S)CNCCN(CCCCC(=O)*)CC(C)(C)S

Tests used:
[1] = system: sites of infection (E. coli, left calf muscle); assay: Scintigraphic imaging and biodistribution of Tc-99m labeled peptides in E. coli-infected rabbits; type: in vivo, New Zealand white rabbits; conditions: for Ratio of Infected/Blood / Ratio of Infected/Control: ratio of % ID/g; for Ratio of Infected/Blood: infected muscle tissue versus blood; for Ratio of Infected/Control: infected versus non-infected muscle tissue; for Infected Muscle (% ID/g): Tc-99m labeled peptide i.v. (≤150 μg, 2-10 mCi), 24 h after i.m. E. coli inoculation, tissue taken after final imaging, percent injected dose per gram tissue; for Blood (% ID/g) / Control Muscle (% ID/g): rabbit, in vivo, iv
Protocol: (§1) After 24 h, the animals were sedated by i.m. injection of ketamine and xylazine, and then injected i.v. with Tc-99m labeled peptide (≤150 μg, 2-10 mCi). The animals were positioned supine in the field of view of a gamma camera (LEAP collimator/photopeaked for Tc-99m) and imaged over the first hour post-injection, and then at approximately 1 h intervals over the next three hours post injection. Animals were allowed to recover between image acquisitions and re-anesthetized as needed.
(§2) Upon completion of the final imaging, each animal was sacrificed by overdose of phenobarbital i.v. and dissected to obtain samples of blood and of infected and control muscle tissue. The tissue samples were weighed, and along with a standard amount of the injected dose, were counted using a gamma counter, and the percent injected dose (per gram of tissue) remaining in the tissues was determined. Ratios of percent of injected dose per gram of infected versus non-infected muscle tissue, and of infected muscle tissue versus blood, were calculated for each peptide. Scintiphotos of whole body and leg images of a rabbit injected with a Tc-99m labeled reagent of the invention, having the formula

[2] = as above; type: in vivo, New Zealand white rabbits; conditions: rabbit, in vivo, iv
Protocol: as §1, §2

Compound: CC[C@H](C)[C@H](NC(=O)[C@H](CCCCN)NC(=O)[C@H](CCCCN)NC(=O)[C@H](Cc1ccc(O)cc1)NC(=O)[C@H](CC(C)C)NC(=O)[C@@H]1CCCN1C(=O)CNC(=O)CNC(=O)CCCCN(CCNCC(C)(C)S)CC(C)(C)S)C(=O)N[C@H](C(=O)N[C@@H](CCCCN)C(=O)N[C@@H](CCCCN)C(=O)N[C@@H](CC(C)C)C(=O)N[C@@H](CC(C)C)C(=O)N[C@@H](CCC(=O)O)C(=O)N[C@@H](CO)C(=O)O)[C@@H](C)CC [[BAT].GGPLYKKIIKKLLES] (X1-GGPLYKKIIKKLLES-OH; N-terminus and C-terminus assumed)
- Ratio of Infected/Blood [1]: 0.50
- Ratio of Infected/Control [1]: 7.00
- tissue uptake ([2]; Blood (% ID/g)): 0.004 %ID/g
- tissue uptake ([2]; Control Muscle (% ID/g)): 0.0003 %ID/g
- tissue uptake ([2]; Tc-99m labeled peptide i.v. (≤150 μg, 2-10 mCi), 24 h after i.m. E. coli inoculation, tissue taken after final imaging, percent injected dose per gram tissue, read-out: Infected Muscle (% ID/g)): 0.0021 %ID/g

Compound: (Ac.CCAcm GCAcm PLYKKIIKKLLES)2 BSME: PF4-derived peptide dimer linked by bis-succinimidylmethylether, Cys(Acm)-Gly-Cys(Acm) Tc-99m binding moiety
- Infected Muscle (% ID/g) [1]: 0.0082 % ID/g
- Blood (% ID/g) [1]: 0.010 % ID/g
- Control Muscle (% ID/g) [1]: 0.0011 % ID/g
- Ratio of Infected/Blood [1]: 0.84
- Ratio of Infected/Control [1]: 7.45

Compound: Ac.CGGGPLYKKIIKKLLES: Tc-99m labeled platelet factor 4-derived peptide reagent (Ac-CGGGPLYKKIIKKLLES; also: Tc-99m labeled)
- Infected Muscle (% ID/g) [1]: 0.0235 % ID/g
- Blood (% ID/g) [1]: 0.032 % ID/g
- Control Muscle (% ID/g) [1]: 0.0050 % ID/g
- Ratio of Infected/Blood [1]: 0.74
- Ratio of Infected/Control [1]: 4.70

Compound: Ac.KKKKKCAcm GCAcm GGPLYKKIIKKLLES: Tc-99m labeled platelet factor 4-derived peptide reagent
- Infected Muscle (% ID/g) [1]: 0.0061 % ID/g
- Scintigraphic images (FIG. 1): localization of radioactivity, infected leg versus contralateral leg ([1]; gamma camera, whole body and leg images of a rabbit injected with the Tc-99m labeled reagent): much greater extent of localization of radioactivity in the leg bearing the experimentallly-infected site compared to the non-infected contralateral leg
- Blood (% ID/g) [1]: 0.006 % ID/g
- Control Muscle (% ID/g) [1]: 0.0019 % ID/g
- Ratio of Infected/Blood [1]: 0.93
- Ratio of Infected/Control [1]: 5.60
